{"source": "patent US9386793B2", "about": "“Compositions and methods for treating obesity and related disorders by characterizing and restoring mammalian bacterial microbiota” (New York University, priority 2010, dated 2016)", "origin": "cited, not measured here", "key": {"[1]": {"system": "Coprobacillus", "parameters": "key: + facilitates growth; w weak growth promotion; +/− growth variable dependent on strain; − no growth effect", "conditions": "substrate for fermentation"}, "[2]": {"system": "Holdemania", "parameters": "key: + facilitates growth; w weak growth promotion; +/− growth variable dependent on strain; − no growth effect", "conditions": "substrate for fermentation"}, "[3]": {"system": "Sporacetegenium", "parameters": "key: + facilitates growth; w weak growth promotion; +/− growth variable dependent on strain; − no growth effect", "conditions": "substrate for fermentation"}, "[4]": {"system": "Clostridium cocleatum", "parameters": "key: + facilitates growth; w weak growth promotion; +/− growth variable dependent on strain; − no growth effect", "conditions": "substrate for fermentation"}, "[5]": {"system": "Johnsonella", "parameters": "key: + facilitates growth; w weak growth promotion; +/− growth variable dependent on strain; − no growth effect", "conditions": "substrate for fermentation"}, "[6]": {"system": "Oscillibacter", "parameters": "key: + facilitates growth; w weak growth promotion; +/− growth variable dependent on strain; − no growth effect", "conditions": "substrate for fermentation"}, "[7]": {"system": "Coprobacillus, Sporacetigenium, Holdemania, or Clostridium cocleatum", "conditions": "but not of Johnsonella and Oscillibacter"}}, "data": [{"compound": "O=C[C@@H](O)[C@H](O)[C@H](O)CO", "note": "[Arabinose]", "values": [{"measurement": "growth of Coprobacillus", "setting": "[1]", "value": "−"}, {"measurement": "growth of Holdemania", "setting": "[2]", "value": "w"}, {"measurement": "growth of Sporacetegenium", "setting": "[3]", "value": "+"}, {"measurement": "growth of Clostridium cocleatum", "setting": "[4]", "value": "−"}, {"measurement": "growth of Johnsonella", "setting": "[5]", "value": "−"}, {"measurement": "growth of Oscillibacter", "setting": "[6]", "value": "+/−^a"}]}, {"compound": "O=C[C@H](O)[C@@H](O)[C@H](O[C@@H]1O[C@H](CO)[C@@H](O)[C@H](O)[C@H]1O)[C@H](O)CO", "note": "[Cellobiose]", "values": [{"measurement": "growth of Coprobacillus", "setting": "[1]", "value": "+"}, {"measurement": "growth of Holdemania", "setting": "[2]", "value": "w"}, {"measurement": "growth of Sporacetegenium", "setting": "[3]", "value": "w"}, {"measurement": "growth of Clostridium cocleatum", "setting": "[4]", "value": "+"}, {"measurement": "growth of Johnsonella", "setting": "[5]", "value": "−"}, {"measurement": "growth of Oscillibacter", "setting": "[6]", "value": "−"}, {"measurement": "growth and metabolic activity of genera (as follows from Table 1)", "setting": "[7]", "value": "stimulate growth and metabolic activity of two or more genera"}]}, {"compound": "O=C[C@@H](O)[C@H](O)[C@H](O)CO", "note": "[D-arabinose]", "values": [{"measurement": "growth of Oscillibacter", "setting": "[6]", "value": "−"}]}, {"compound": "O=c1ccc2cc(O[C@@H]3O[C@H](CO)[C@@H](O)[C@H](O)[C@H]3O)c(O)cc2o1", "note": "[Esculin]", "values": [{"measurement": "growth of Coprobacillus", "setting": "[1]", "value": "−"}, {"measurement": "growth of Holdemania", "setting": "[2]", "value": "+"}, {"measurement": "growth of Johnsonella", "setting": "[5]", "value": "−"}]}, {"compound": "O=C(CO)[C@@H](O)[C@H](O)[C@H](O)CO", "note": "[Fructose]", "values": [{"measurement": "growth of Coprobacillus", "setting": "[1]", "value": "+"}, {"measurement": "growth of Holdemania", "setting": "[2]", "value": "+"}, {"measurement": "growth of Sporacetegenium", "setting": "[3]", "value": "+"}, {"measurement": "growth of Clostridium cocleatum", "setting": "[4]", "value": "+"}, {"measurement": "growth of Johnsonella", "setting": "[5]", "value": "−"}, {"measurement": "growth of Oscillibacter", "setting": "[6]", "value": "−"}, {"measurement": "growth and metabolic activity of genera (as follows from Table 1)", "setting": "[7]", "value": "stimulate growth and metabolic activity of two or more genera"}]}, {"compound": "O=C[C@H](O)[C@@H](O)[C@@H](O)[C@H](O)CO", "note": "[Galactose]", "values": [{"measurement": "growth of Coprobacillus", "setting": "[1]", "value": "+"}, {"measurement": "growth of Sporacetegenium", "setting": "[3]", "value": "w"}, {"measurement": "growth of Clostridium cocleatum", "setting": "[4]", "value": "+"}, {"measurement": "growth of Oscillibacter", "setting": "[6]", "value": "−"}, {"measurement": "growth and metabolic activity of genera (as follows from Table 1)", "setting": "[7]", "value": "stimulate growth and metabolic activity of two or more genera"}]}, {"compound": "O=C[C@H](O)[C@@H](O)[C@@H](O)CO", "note": "[L-arabinose]", "values": [{"measurement": "growth of Oscillibacter", "setting": "[6]", "value": "+"}]}, {"compound": "OC[C@H]1O[C@@H](O[C@H]2[C@H](O)[C@@H](O)C(O)O[C@@H]2CO)[C@H](O)[C@@H](O)[C@H]1O", "note": "(stereo partly shown) [Lactose]", "values": [{"measurement": "growth of Coprobacillus", "setting": "[1]", "value": "+"}, {"measurement": "growth of Holdemania", "setting": "[2]", "value": "+"}, {"measurement": "growth of Sporacetegenium", "setting": "[3]", "value": "w"}, {"measurement": "growth of Clostridium cocleatum", "setting": "[4]", "value": "+"}, {"measurement": "growth of Johnsonella", "setting": "[5]", "value": "−"}, {"measurement": "growth of Oscillibacter", "setting": "[6]", "value": "−"}, {"measurement": "growth and metabolic activity of genera (as follows from Table 1)", "setting": "[7]", "value": "stimulate growth and metabolic activity of two or more genera"}]}, {"compound": "OC[C@H]1O[C@H](O[C@H]2[C@H](O)[C@@H](O)[C@H](O)O[C@@H]2CO)[C@H](O)[C@@H](O)[C@@H]1O", "note": "[Maltose]", "values": [{"measurement": "growth of Coprobacillus", "setting": "[1]", "value": "+"}, {"measurement": "growth of Holdemania", "setting": "[2]", "value": "+"}, {"measurement": "growth of Sporacetegenium", "setting": "[3]", "value": "+"}, {"measurement": "growth of Clostridium cocleatum", "setting": "[4]", "value": "+"}, {"measurement": "growth of Johnsonella", "setting": "[5]", "value": "−"}, {"measurement": "growth of Oscillibacter", "setting": "[6]", "value": "−"}, {"measurement": "growth and metabolic activity of genera (as follows from Table 1)", "setting": "[7]", "value": "stimulate growth and metabolic activity of two or more genera"}]}, {"compound": "OC[C@H]1O[C@H](OCC2O[C@@H](O)[C@H](O)[C@@H](O)[C@@H]2O)[C@H](O)[C@@H](O)[C@H]1O", "note": "(stereo partly shown) [Mellibiose]", "values": [{"measurement": "growth of Holdemania", "setting": "[2]", "value": "w"}, {"measurement": "growth of Sporacetegenium", "setting": "[3]", "value": "w"}, {"measurement": "growth of Clostridium cocleatum", "setting": "[4]", "value": "+"}, {"measurement": "growth of Johnsonella", "setting": "[5]", "value": "−"}, {"measurement": "growth of Oscillibacter", "setting": "[6]", "value": "−"}, {"measurement": "growth and metabolic activity of genera (as follows from Table 1)", "setting": "[7]", "value": "stimulate growth and metabolic activity of two or more genera"}]}, {"compound": "OC[C@H]1O[C@H](OC[C@H]2O[C@H](O[C@]3(CO)O[C@H](CO)[C@@H](O)[C@@H]3O)[C@H](O)[C@@H](O)[C@@H]2O)[C@H](O)[C@@H](O)[C@H]1O", "note": "[Raffinose]", "values": [{"measurement": "growth of Coprobacillus", "setting": "[1]", "value": "−"}, {"measurement": "growth of Holdemania", "setting": "[2]", "value": "w"}, {"measurement": "growth of Sporacetegenium", "setting": "[3]", "value": "w"}, {"measurement": "growth of Clostridium cocleatum", "setting": "[4]", "value": "+"}, {"measurement": "growth of Johnsonella", "setting": "[5]", "value": "−"}, {"measurement": "growth of Oscillibacter", "setting": "[6]", "value": "−"}, {"measurement": "growth and metabolic activity of genera (as follows from Table 1)", "setting": "[7]", "value": "stimulate growth and metabolic activity of two or more genera"}]}, {"compound": "C[C@H](O)[C@H](O)[C@@H](O)[C@@H](O)C=O", "note": "[Rhamnose]", "values": [{"measurement": "growth of Coprobacillus", "setting": "[1]", "value": "−"}, {"measurement": "growth of Holdemania", "setting": "[2]", "value": "w"}, {"measurement": "growth of Sporacetegenium", "setting": "[3]", "value": "w"}, {"measurement": "growth of Clostridium cocleatum", "setting": "[4]", "value": "−"}, {"measurement": "growth of Johnsonella", "setting": "[5]", "value": "−"}, {"measurement": "growth of Oscillibacter", "setting": "[6]", "value": "−"}]}, {"compound": "O=C[C@H](O)[C@H](O)[C@H](O)CO", "note": "[Ribose]", "values": [{"measurement": "growth of Coprobacillus", "setting": "[1]", "value": "−"}, {"measurement": "growth of Holdemania", "setting": "[2]", "value": "w"}, {"measurement": "growth of Sporacetegenium", "setting": "[3]", "value": "+/−"}, {"measurement": "growth of Clostridium cocleatum", "setting": "[4]", "value": "−"}, {"measurement": "growth of Johnsonella", "setting": "[5]", "value": "−"}, {"measurement": "growth of Oscillibacter", "setting": "[6]", "value": "+"}]}, {"compound": "OCc1ccccc1O[C@@H]1O[C@H](CO)[C@@H](O)[C@H](O)[C@H]1O", "note": "[Salicin]", "values": [{"measurement": "growth of Coprobacillus", "setting": "[1]", "value": "+"}, {"measurement": "growth of Holdemania", "setting": "[2]", "value": "+"}, {"measurement": "growth of Sporacetegenium", "setting": "[3]", "value": "−"}, {"measurement": "growth of Clostridium cocleatum", "setting": "[4]", "value": "w"}, {"measurement": "growth of Johnsonella", "setting": "[5]", "value": "−"}, {"measurement": "growth of Oscillibacter", "setting": "[6]", "value": "−"}, {"measurement": "growth and metabolic activity of genera (as follows from Table 1)", "setting": "[7]", "value": "stimulate growth and metabolic activity of two or more genera"}]}, {"compound": "OC[C@H]1O[C@@](CO)(O[C@H]2O[C@H](CO)[C@@H](O)[C@H](O)[C@H]2O)[C@@H](O)[C@@H]1O", "note": "[Sucrose]", "values": [{"measurement": "growth of Coprobacillus", "setting": "[1]", "value": "+"}, {"measurement": "growth of Holdemania", "setting": "[2]", "value": "+"}, {"measurement": "growth of Sporacetegenium", "setting": "[3]", "value": "w"}, {"measurement": "growth of Clostridium cocleatum", "setting": "[4]", "value": "+"}, {"measurement": "growth of Johnsonella", "setting": "[5]", "value": "−"}, {"measurement": "growth of Oscillibacter", "setting": "[6]", "value": "−"}, {"measurement": "growth and metabolic activity of genera (as follows from Table 1)", "setting": "[7]", "value": "stimulate growth and metabolic activity of two or more genera"}]}, {"compound": "OC[C@H]1O[C@H](O[C@H]2O[C@H](CO)[C@@H](O)[C@H](O)[C@H]2O)[C@H](O)[C@@H](O)[C@@H]1O", "note": "[Trehalose]", "values": [{"measurement": "growth of Coprobacillus", "setting": "[1]", "value": "+"}, {"measurement": "growth of Holdemania", "setting": "[2]", "value": "w"}, {"measurement": "growth of Sporacetegenium", "setting": "[3]", "value": "w"}, {"measurement": "growth of Clostridium cocleatum", "setting": "[4]", "value": "−"}, {"measurement": "growth of Johnsonella", "setting": "[5]", "value": "−"}, {"measurement": "growth of Oscillibacter", "setting": "[6]", "value": "−"}, {"measurement": "growth and metabolic activity of genera (as follows from Table 1)", "setting": "[7]", "value": "stimulate growth and metabolic activity of two or more genera"}]}, {"compound": "O=C[C@H](O)[C@@H](O)[C@H](O)CO", "note": "[Xylose]", "values": [{"measurement": "growth of Coprobacillus", "setting": "[1]", "value": "−"}, {"measurement": "growth of Holdemania", "setting": "[2]", "value": "w"}, {"measurement": "growth of Sporacetegenium", "setting": "[3]", "value": "+"}, {"measurement": "growth of Clostridium cocleatum", "setting": "[4]", "value": "−"}, {"measurement": "growth of Johnsonella", "setting": "[5]", "value": "−"}, {"measurement": "growth of Oscillibacter", "setting": "[6]", "value": "+"}]}, {"compound": "Inulin", "values": [{"measurement": "growth of Clostridium cocleatum", "setting": "[4]", "value": "+"}]}]}
